From US10905122B2, “Use of tetrazolinones for combating resistant phytopathogenic fungi on cereals” (BASF SE, priority 2016, dated 2021)

Tests used:
Format in all cases: cell-based
[1] = tested on: sensitive isolate of Septoria tritici; assay: Microtiter test against leaf blotch on wheat, sensitive isolate of Septoria tritici; settings: 63 ppm, absorption at 405 nm 7 days after inoculation, 18° C.
Method: (§1) Compound I according to the present invention is formulated separately as a stock solution having a concentration of 10000 ppm in dimethyl sulfoxide.
(§2) The stock solution of compound I according to the present invention was mixed according to the ratio, pipetted onto a micro titer plate and diluted with water to the stated concentrations. A spore suspension of a sensitive and a QOI resistant isolate of Septoria tritici in an aqueous biomalt or yeast-bactopeptone-glycerine solution was then added. The plates were placed in a water vapor-saturated chamber at a temperature of 18° C. Using an absorption photometer, the MTPs were measured at 405 nm 7 days after the inoculation.
(§3) Compound I according to the present invention and compound 1-213 from prior art (WO2013/092224) were formulated separately as a stock solution having a concentration of 10000 ppm in dimethyl sulfoxide. The stock solutions of compound I according to the present invention and compound 1-213 from prior art (WO2013/092224) were mixed according to the ratio, pipetted onto a micro titer plate and diluted with water to the stated concentrations. A spore suspension of a sensitive and a QOI resistant isolate of Septoria tritici in an aqueous biomalt or yeast-bactopeptone-glycerine solution was then added. […] Using an absorption photometer, the MTPs were measured at 405 nm 7 days after the inoculation.

[2] = tested on: QOI resistant isolate of Septoria tritici; assay: Microtiter test against leaf blotch on wheat, QOI resistant isolate of Septoria tritici; settings: 63 ppm, absorption at 405 nm 7 days after inoculation, 18° C.
Method: as §1, §2, §3

[3] = tested on: sensitive isolate of Pyrenophora teres; assay: Microtiter test against net blotch, sensitive isolate of Pyrenophora teres; settings: Example 1B; 63 ppm; absorption at 405 nm 7 days after inoculation; 18° C.
From the text: as §1
as §2, with “titer plate (MTP) and diluted” for “titer plate and diluted”, “isolate of Pyrenophora teres in an” for “isolate of Septoria tritici in an”

[4] = tested on: QOI resistant isolate of Pyrenophora teres; assay: Microtiter test against net blotch, QOI resistant isolate of Pyrenophora teres; settings: Example 1B; 63 ppm; absorption at 405 nm 7 days after inoculation; 18° C.
From the text: as §1
as §2, with “titer plate (MTP) and diluted” for “titer plate and diluted”, “isolate of Pyrenophora teres in an” for “isolate of Septoria tritici in an”

In the case of `Cc1cccc(-n2nnn(C)c2=O)c1COc1ccn(-c2ccc(Cl)cc2)n1` [compound I, 1-[2-[[1-(4-chlorophenyl)pyrazol-3-yl]oxymethyl]-3-methyl-phenyl]-4-methyl-tetrazol-5-one], the “Growth (%) sensitive isolate of Septoria tritici” value ([1]; Example 1A) was 0%, the “Growth (%) sensitive isolate of Septoria tritici” value ([1]; Example 2 comparative) was 0% and the “Growth (%) QOI resistant isolate of Septoria tritici” value ([2]; Example 1A) was 3%. For the same compound, the “Growth (%) QOI resistant isolate of Septoria tritici” value ([2]; Example 2 comparative) was 3%, the “Growth (%) sensitive isolate of Pyrenophora teres.” value [3] was 6% and the “Growth (%) QOI resistant isolate of Pyrenophora teres” value [4] was 6%.
